Measured values: patent US10377763B2, “Morphinan derivative and medical usage thereof” (UNIVERSITY OF TSUKUBA, priority 2015, dated 2019)

Columns and labels:
human OX2R = human OX2R (Homo sapiens (Human), UniProt O43614); experiment: Measurement of antagonistic activity against orexin receptors (intracellular calcium, CHOOX2R cells); assay type: cell-based; details: CHOOX2R cells, 300 pM OX-A, Fura-2 calcium; read-out: OX2 (IC50)
Experimental: (§1) The Chinese hamster ovary (CHO) cell lines CHOOX1R and CHOOX2R were established by modifying CHO cells to constantly express the NFAT-luciferase gene and either the human OX1R or human OX2R gene. Those cells were plated at 10,000 cells/well in 96-well multiplates with DMEM (manufactured by Sigma-Aldrich Co. LLC) supplemented with 5% FBS (manufactured by Thermo Scientific Inc.) and incubated at 37° C. and 5% CO2 for 48 hours. After removal of the medium, 100 μL of an assay buffer (20 mM HEPES (manufactured by Sigma-Aldrich Co. LLC), Hank's balanced salt solution (manufactured by Gibco), 0.1% BSA (manufactured by Sigma-Aldrich Co. LLC), 2.5 mM probenecid acid (manufactured by Wako Pure Chemical Industries, Ltd.), pH 7.4) containing 5 μM Fura-2AM (manufactured by Cayman Chemical Co.) was added to each well, and incubated at 37° C. and 5% CO2 for 60 minutes. After removal of the buffer containing Fura-2AM, 75 μL of the assay buffer was added to each well. Then, […] of the assay buffer containing a test compound at various concentrations and OX-A (manufactured by Peptide Institute, Inc.) was added to start the reaction. The change in intracellular calcium ion concentration induced by the reaction was evaluated by the ratio of fluorescent intensities, which were measured at a wavelength of 510 nm based on the two wavelength excitation approach using FDSS 7000 (manufactured by Hamamatsu Photonics K.K.) with fluorescence excitation at 340 nm and 380 nm. A concentration-response curve on the antagonistic activity was plotted from the values of maximal fluorescent intensity ratio determined when various concentrations of a test compound were added in the presence of […] of OX-A, where a value of maximal fluorescent intensity ratio determined by adding 300 pM of OX-A alone corresponds to 100% and a value of maximal fluorescent intensity ratio determined by adding the assay buffer alone corresponds to 0%. Based on the resulting non-linear regression curve, the 50% maximal inhibitory concentration (IC50) was calculated. Each test compound was dissolved in DMSO to a concentration of 10 mM (the final concentration of DMSO was 1%), and then diluted with the assay buffer to give a final concentration of 3.0×10^−10 M to 1.0×10^−5 M (a common ratio of 3), while OX-A was diluted to a final concentration of 300 pM. The experiment was performed in quadruplicate plates, and the results of the four independent measurements were averaged to give the value of each reaction, and then the IC50 of a sample was calculated. If the sample number was 2 or more, the averaged IC50 was used.

human OX1R = human OX1R (Homo sapiens (Human), UniProt O43613); experiment: Measurement of antagonistic activity against orexin receptors (intracellular calcium, CHOOX1R cells); assay type: cell-based; details: for IC50: CHOOX1R cells, 300 pM OX-A, Fura-2 calcium, read-out: OX1 (IC50); for antagonistic activity against human OX1 receptor (in words): summary of Table 6
Experimental: as §1

human OX2R, sequence (O43614 whole entry): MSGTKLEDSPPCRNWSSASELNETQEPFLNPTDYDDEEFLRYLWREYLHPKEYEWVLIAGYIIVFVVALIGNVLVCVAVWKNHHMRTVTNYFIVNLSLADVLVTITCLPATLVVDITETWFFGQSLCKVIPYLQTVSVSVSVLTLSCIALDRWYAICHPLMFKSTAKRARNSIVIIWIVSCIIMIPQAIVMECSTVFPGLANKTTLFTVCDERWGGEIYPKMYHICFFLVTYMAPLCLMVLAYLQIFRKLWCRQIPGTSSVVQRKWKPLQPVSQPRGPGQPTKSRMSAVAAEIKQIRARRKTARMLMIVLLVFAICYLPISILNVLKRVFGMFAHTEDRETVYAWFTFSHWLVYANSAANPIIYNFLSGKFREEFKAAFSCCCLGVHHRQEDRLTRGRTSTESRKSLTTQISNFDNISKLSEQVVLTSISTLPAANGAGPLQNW
human OX1R, sequence (O43613 whole entry): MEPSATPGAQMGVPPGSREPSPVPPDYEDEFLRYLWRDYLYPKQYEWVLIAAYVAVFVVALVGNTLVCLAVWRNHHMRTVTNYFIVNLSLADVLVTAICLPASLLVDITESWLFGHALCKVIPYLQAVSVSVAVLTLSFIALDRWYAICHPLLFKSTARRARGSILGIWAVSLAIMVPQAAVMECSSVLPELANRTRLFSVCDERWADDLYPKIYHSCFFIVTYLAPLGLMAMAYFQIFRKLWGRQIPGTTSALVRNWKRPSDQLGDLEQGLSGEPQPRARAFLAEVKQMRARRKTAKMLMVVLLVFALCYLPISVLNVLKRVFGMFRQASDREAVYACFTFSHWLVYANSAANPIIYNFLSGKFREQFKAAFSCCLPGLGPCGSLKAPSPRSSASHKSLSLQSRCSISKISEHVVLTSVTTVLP

SMILES | IC50 (human OX2R) [nM] | IC50 (human OX1R) [nM] | antagonistic activity against human OX1 receptor (in words) (human OX1R)
COc1ccc2c3c1O[C@H]1[C@H](N(C)C(=O)/C=C/c4ccoc4)CC[C@@]4(O)[C@@H](C2)N(S(=O)(=O)c2cccc(Cl)c2)CC[C@]314 [Example 18] | > 10000 | 195 | potent and selective antagonistic activity
COc1ccc2c3c1O[C@H]1[C@H](N(C)C(=O)/C=C/c4ccoc4)CC[C@@]4(O)[C@@H](C2)N(S(=O)(=O)c2ccccc2Br)CC[C@]314 [Example 20] | > 10000 | 56.2 | potent and selective antagonistic activity
COc1ccc2c3c1O[C@H]1[C@H](N(C)C(=O)/C=C/c4ccoc4)CC[C@@]4(O)[C@@H](C2)N(S(=O)(=O)c2cccc(Br)c2)CC[C@]314 [Example 21] | > 10000 | 200 | potent and selective antagonistic activity
COc1ccc2c3c1O[C@H]1[C@H](N(C)C(=O)/C=C/c4ccoc4)CC[C@@]4(O)[C@@H](C2)N(S(=O)(=O)c2c(C)cc(C)cc2C)CC[C@]314 [Example 23] | > 10000 | 121 | potent and selective antagonistic activity
COc1ccc2c3c1O[C@H]1[C@H](N(C)C(=O)/C=C/c4ccoc4)CC[C@@]4(O)[C@@H](C2)N(S(=O)(=O)c2cccc5cccnc25)CC[C@]314 [Example 25] | > 10000 | 198 | potent and selective antagonistic activity
CCCCS(=O)(=O)N1CC[C@]23c4c5ccc(OC)c4O[C@H]2[C@H](N(C)C(=O)/C=C/c2ccoc2)CC[C@@]3(O)[C@H]1C5 [Example 27] | > 10000 | 87.8 | potent and selective antagonistic activity
COc1ccc2c3c1O[C@H]1[C@H](N(C)C(=O)/C=C/c4ccoc4)CC[C@@]4(O)[C@@H](C2)N(S(=O)(=O)C2CC2)CC[C@]314 [Example 28] | > 10000 | 101 | potent and selective antagonistic activity
COc1ccc2c3c1O[C@H]1[C@H](N(C)C(=O)/C=C/c4ccoc4)CC[C@@]4(O)[C@@H](C2)N(S(=O)(=O)c2ccc(N(C)C)cc2)CC[C@]314.Cl [Example 32] | > 10000 | 11.7 | potent and selective antagonistic activity
COc1ccc2c3c1O[C@H]1[C@H](N(C)C(=O)/C=C/c4ccoc4)CC[C@@]4(O)[C@@H](C2)N(C(=O)C2CC2)CC[C@]314 [Example 34] | > 10000 | 259 | potent and selective antagonistic activity
COc1ccc2c3c1O[C@H]1[C@H](N(C)C(=O)/C=C/c4ccoc4)CC[C@@]4(O)[C@@H](C2)N(C(=O)c2ccc(C)cc2)CC[C@]314 [Example 35] | > 10000 | 571 | potent and selective antagonistic activity
COc1ccc2c3c1O[C@H]1[C@H](N(C)C(=O)C=Cc4ccccc4)CC[C@@]4(O)[C@@H](C2)N(S(=O)(=O)c2ccccc2)CC[C@]314 [Example 38, N-[(4R,4aS,7R,7aR,12bS)-4a-hydroxy-9-methoxy-3-(phenylsulfonyl)-2,3,4,4a,5,6,7,7a-octahydro-1H-4,12-methanobenzofuro[3,2-e]isoquinolin-7-yl]-N-methylcinnamide] | > 10000 | 128 | potent and selective antagonistic activity
COc1ccc2c3c1O[C@H]1[C@H](N(C)C(=O)Nc4ccccc4)CC[C@@]4(O)[C@@H](C2)N(S(=O)(=O)c2ccccc2)CC[C@]314 [Example 41] | > 10000 | 159 | potent and selective antagonistic activity
COc1ccc2c3c1O[C@H]1[C@H](N(C)C(=O)NCc4ccccc4)CC[C@@]4(O)[C@@H](C2)N(S(=O)(=O)c2ccccc2)CC[C@]314 [Example 42] | > 10000 | 688 | potent and selective antagonistic activity
